One test relates to female Aedes aegypti. In words: Flight tunnel mosquito bioassay. Particulars: for mean fed / mean probed: paired with CO2 (dry ice) + air; for fed (mean of triplicates) / probed (mean of triplicates): paired with control. The format is in vivo. Here is the method: Mosquitoes: Aedes aegypti (Liverpool) were reared in an insectary using standard rearing procedures. Approximately 50 larvae were reared in plastic cups (13×7×7.5 cm) at 27±1° C., and were fed ground up fish pellets. Adults were contained in plastic cartons covered by nylon screening and were fed using cotton pads soaked in a 10% glucose solution. Prior to blood feeding, 20 adult females, approximately 6 to 8 days old, were aspirated out of the rearing cartons and placed in to a stock cage (20×20×20 cm). Flight Tunnel Mosquito Bioassay: The assay system consists of a six well reservoir placed at the upwind end of a flight tunnel ([…]). Temperature and humidity of the flight tunnel were maintained at rearing conditions as described above. Air was constantly pushed through the flight tunnel at a wind speed of 35 ft/min. The four center wells of the six well reservoir were utilized in these bioassays. One of the 3 cm×4 cm wells contained 6 ml of citrate-phosphate-dextrose-adenine (CPDA) solution and three wells contained 6 ml of CPDA solution supplemented with adenosine triphosphate (ATP) (Sigma Chemical Co., St. Louis, Mo.). A constant-temperature water circulator warmed the reservoir to 38° C. A collagen membrane (Devro, Sandy Run, S.C.) was placed over the wells and secured to the reservoir with a light coat of high-vacuum grease (Dow Corning Corp., Midland, Mich.). The membranes were replaced after each replicate observation and additional substrate was added as needed. The reservoir and CPDA solution was used for one replicate. Twenty mosquitoes were aspirated into a cylindrical release canister (20.5 mm×7 mm) containing a mesh screen on one end and a damper on the opposite end (Precision Plastics, Inc., Beltsville, Md.). Mosquitoes were allowed to acclimate in the canister for ten minutes and then were utilized in bioassays. The canister was placed downwind of the reservoir in the flight tunnel. Human breath was introduced in a plume into the tunnel for one minute prior to opening of the release canister. Mosquitoes were then released into the flight tunnel where the number of mosquitoes biting (proboscis inserted through the membrane) within each cell during the 10-min exposure was recorded. The solution in each well consisted of either CPDA in deionized water or one of the three experimental solutions, 10^−2M, 10^−3 M, or 10^−4 M ATP with CPDA, each marked with a randomly assigned food dye color (Betty Crocker). The position of each colored solution in the reservoir was also randomized. Mosquitoes were used once in a test and then aspirated for determination of engorgement. Several attractant candidates were compared one on one with each other, and with CO2 in the flight tunnel to evaluate efficacy.

The next test relates to Ae. aegypti. In words: Attract and kill bait evaluation in bucket. It counts as in vivo, Aedes aegypti. As to conditions: sugar gel containing pyriproxyfen spiked with 5 ml of Okoumal. The source says: Attract and Kill Bait Evaluation: The assay system consists of a 1L plastic bucket covered with screened lid. A divider was placed to separate attract and kill bait from the control feeding. 50 Adult mosquitoes used in tests were between 5-10 days old, and were kept on water pads only for 24 hrs. prior to testing. Ae. aegypti used in each test session were all loaded into plastic bucket with attract and kill bait and control feeding formulation made with agarose gel containing sugar and color. In the preliminary semi-field trial, baits were charged with attractant candidates and deployed in to the either hut or tents. In one experiment 30 adult female Aedes aegypti mosquitoes were released, while in another trial at different location 20 adult female Aedes aegypti mosquitoes were released and observed for the attraction or attract-kill effect of the candidates. To incorporate invented field stable and long lasting attractants in the baits various putative devices were constructed and few of these attract and kill bait formulations were evaluated in the insectary and semi-field conditions. Data analysis: Attraction assay data were analyzed using the Wilcoxon two-sample test (PROC NPAR1WAY, SAS 1999) to examine the difference between the numbers of mosquitoes in control from treated baits. […]

The subject of test [1] is host seeking Aedes albopictus females. In words: Field study with BG Sentinel traps in yards. It counts as in vivo. As to conditions: BG Sentinel trap with attractant lure, 24 hr periods, 10 yards; control 3-4. Here is the method:
In field studies, Okoumal (1) was evaluated as an attractant for host seeking Aedes albopictus females in the BG Sentinel traps placed in different areas (yards). In the before and after control intervention evaluation, one standard BG Sentinel mosquito trap was placed in each of the 10 yards and mosquitoes were trapped for 24 hr periods in ten replicates. The first five replicates were before adding Okoumal attractant as intervention. The second set of five replicates included additional lure to the BG Sentinel trap. The traps with attractant lures collected more mean mosquitoes per trap per day (6-7 vs 3-4 mosquitoes), compared to control.

The subject of test [2] is Aedes albopictus, Ae. triseratus, and Ae. japonicus. In words: Field study with oviposition cups. The format is in vivo. As to conditions: 0 to 1% in oviposition cups, forested area, retrieved after 10 days. As to the method: In the second field study different concentrations (0 to 1%) of Okoumal (1) were added to oviposition cups. Oviposition cups were placed in forested area that has known populations of Aedes albopictus, Ae. triseratus, and Ae. japonicus. Ovicups were retrieved after 10 days and accessed for the presence of mosquito eggs of different species.

In the case of `CC1COC(C)(c2ccc3c(c2)C(C)(C)CCC3(C)C)O1` (stereo not drawn) [Okoumal], the mean fed is reported as 3.9 in the test on female Aedes aegypti (0.1% concentration) and 3.8 with female Aedes aegypti (1% concentration). The mean probed is given as 3.6 in the test with female Aedes aegypti (0.1% concentration) and 4.1 in the test with female Aedes aegypti (1% concentration). For the same molecule, the “fed (mean of triplicates)” value stood at 3.3 in the test on female Aedes aegypti (0.10% concentration), 2.8 with female Aedes aegypti (1.00% concentration) and 2.3 with female Aedes aegypti (5% concentration). The “probed (mean of triplicates)” value in the test with female Aedes aegypti (0.10% concentration) is on record as 18.3; in the test on female Aedes aegypti (1.00% concentration), 9.7; with female Aedes aegypti (5% concentration) it was 13.3. For the same molecule, in the test with female Aedes aegypti (compared with CO2 and cyclopentanone, host seeking female mosquitoes), the “feeding (host seeking) preference, in words” value is recorded as “consistent feeding (host seeking) preference”. Also, in the test with female Aedes aegypti (three different concentrations), the “feeding attraction, in words” value is given as “consistent feeding attraction”. The “mosquitoes in the bucket preferring feeding on treated gel over control sugar gel” value in the test on Ae. aegypti is 90%. For the same molecule, in test [1], the “mean mosquitoes per trap per day” value is 6-7 mosquitoes. The “effect on numbers of oviposited eggs, in words” value in test [2] was “significant effect of Okoumal concentration on numbers of oviposited eggs”.
